Measured values published in patent publication US20260091147A1, “METHOD FOR DETECTING INNATE IMMUNE ACTION IN VIVO USING GPR84-PET” (The Board of Trustees of the Leland Standford Junior …, priority 2023, published 2026).
Where “and” joins values, the source holds several entries; their conditions need not be identical. Equal values may be shown once.

Key:
GPR84 = GPR84 (Homo sapiens, UniProt Q9NQS5); test: Radiotracer cell binding, hGPR84-HEK-293 vs control HEK-293 cells, with or without GLPG1205 block; type: cell-based; set-up: host or cells: HEK-293 cells, lentivirally transduced, puromycin-selected monoclonal line; settings: for fold higher binding to hGPR84-HEK-293 cells vs control cells: 40 min incubation; for reduction of tracer binding in hGPR84-HEK293 cells by GLPG1205: co-incubation with GLPG1205 35 μM (1000× by mass), 40 min
Sequence of GPR84 (Q9NQS5 whole entry): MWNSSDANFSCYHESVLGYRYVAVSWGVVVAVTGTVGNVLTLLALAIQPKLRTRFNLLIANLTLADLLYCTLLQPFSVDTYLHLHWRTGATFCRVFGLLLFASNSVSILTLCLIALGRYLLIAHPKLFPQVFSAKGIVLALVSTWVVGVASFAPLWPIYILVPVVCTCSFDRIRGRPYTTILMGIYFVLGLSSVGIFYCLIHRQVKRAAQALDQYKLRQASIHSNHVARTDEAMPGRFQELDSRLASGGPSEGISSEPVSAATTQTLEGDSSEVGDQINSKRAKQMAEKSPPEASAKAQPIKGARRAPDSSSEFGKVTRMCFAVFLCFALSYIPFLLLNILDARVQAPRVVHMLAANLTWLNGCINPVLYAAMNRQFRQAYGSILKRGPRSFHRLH
Procedure: GPR84-transduced HEK-293 cells and control HEK-293 cells were plated at a concentration of 3×10^5 cells per well in media (DMEM with 10% FBS and 1% anti-anti) into three 12-well plates 16-24 hr prior to the cell binding assay. Once cells reached ˜90% confluency, the radiotracer was prepared. […] The radiotracer was diluted in DMEM without FBS or antibiotic to yield a 30 mL solution where the amount of activity was 25 μCi in 500 μL. The first 12-well plate was incubated for 20 minutes at 37° C. and 5% CO2 in air while the next was incubated for 40 minutes at the same conditions. Cells were subsequently washed with PBS, trypsinized, resuspended in DMEM+10% FBS, and pipetted into gamma counting tubes at 500 μL volume. Radioactivity levels bound to cells were measured in a gamma counter (Hidex Oy, Helsinki, Finland), and cell counts were recorded using Trypan blue and an automatic cell counter to normalize radioactivity levels to cell count.
At the indicated time points, plates were placed on ice, washed three times with ice-cold phosphate-buffered saline (PBS), and trypsinized (150 μL per well) for 2 min at 37° C. The trypsin was neutralized by adding 600 μL DMEM containing 10% FBS (original cell culture media) to each well. […] Gamma counting was performed to quantitate percentage radiotracer uptake by the cells and decay-corrected radioactivity was determined (Hidex automated gamma counter). Finally, cells in each gamma counting tube were counted by using the Countess cell counter (Life Technologies). Cell binding was expressed in terms of % uptake/million cells.
GPR84-transduced HEK-293 cells and control HEK-293 cells from Creative Biogene were plated at a concentration of 3×10^5 cells per well in media (DMEM with 10% FBS and 1% anti-anti) into a 12-well plate for 16-24 hr. HEK-293 cells were stably transduced via the following process from Creative Biogene: construction of pLVX-CMV-Human-GPR84-PGK-Puro lentiviral expression plasmid, lentivirus production, lentivirus transduction, puromycin selection of polyclonal stable HEK293-Human-GPR84 cells, screening of monoclonal stable HEK293-Human-GPR84 cells via limited dilution, validation using qPCR, then mycoplasma detection by PCR and Lonza kit. Once cells reached ˜90% confluency, the radiotracer was prepared. The radiotracer was diluted in DMEM without FBS or antibiotic to yield a 30 mL solution such that the amount of activity was 50 μCi/mL for ^11C or 2 μCi/mL for ^18F. […] The 12-well plate was incubated for 40 min at 37° C. and 5% CO2 in air. […] Radioactivity levels bound to cells were measured in a gamma counter (Hidex Oy, Helsinki, Finland), and cell counts were recorded using Trypan blue and an automatic cell counter to normalize radioactivity levels to cell count.

[1] = Dynamic 60 min PET/CT of healthy mice, whole-brain time activity curve; type: in vivo, mouse
Description: A transmission scan was acquired to correct for attenuation during image reconstruction. Following PET imaging, mice were transferred to a SOFIE GNEXT PET/CT for CT acquisition. PET/CT data were co-registered and analyzed using Inveon Research Workplace software to generate images and quantify radiotracer uptake in regions of interest (ROIs). A 3D ROI was manually defined for the whole brain using CT data as anatomical reference, then applied to the full dynamic data set to generate a time activity curve (TAC).
The count densities were averaged for all volumes of interest at each time point to obtain a time-activity curve (TAC). The TACs were normalized to injected dose, as measured by a CRC-15 PET dose calibrator (Capintec Inc.), and expressed as % injected dose per gram (% ID/g), assuming 1 g/mL. CT was performed in GNEXT depth of interaction (DOI) dual-layer detector system. Scintica VivoQuant software was used to visualize radiotracer uptake and define the 3D volumes of interest. 3D maximum intensity projection (MIP) PET/CT images were created using IRW software.
On days 15-16 after EAE induction, mice were catheterized and placed on the 4-mouse scanning bed of the Sofie GNEXT PET/CT scanner.

[2] = test system: human monocyte-derived macrophages (hMDMs); test: hMDM radioactive cell binding assay, with or without LPS; type: cell-based; settings: LPS 100 ng/mL; for tracer signal in LPS-challenged hMDMs after co-incubation with GLPG1205: GLPG1205 block
Procedure: CD14^+ monocytes isolated from PBMCs from human peripheral blood were plated 10×10^6 cells per 10 cm petri dish in 8-10 mL complete growth medium (for quantitative PCR) or 10^6-10^5 cells per well in 1 mL complete growth medium into one 12-well plate per blood donor (radioactive cell binding) and incubated 7-10 days at 5% CO2 in air at 37° C. These cells were then treated with 100 ng/mL LPS in complete growth medium 24 hr or 72 hr prior to experimentation according to previous working concentrations in the literature.
Human monocyte-derived macrophages (hMDMs) were plated at a concentration of 10^6-10^5 cells per well in media (RPMI 1640+glutamax with 10% FBS, 1% anti-anti, and 50 ng/mL M-CSF) into one 12-well plate per blood donor. Once cells adhered to the plate (˜24 hr), 100 ng/mL lipopolysaccharides (LPS) was applied to two of the three rows of the plate. 24 hr later, the [^11C]GLPG38, [^11C]MGX-10S, or [^18F]MGX-110S radiotracer was prepared. The radiotracer was diluted in RPMI 1640 without FBS or antibiotic to yield a 30 mL solution such that the amount of activity was 50 μCi/mL for ^11C or 2 μCi/mL for ^18F. Additionally, a blocking solution was prepared consisting of 35 μM GLPG1205 dissolved in DMSO and added to RPMI 1640 media+tracer solution. The 12-well plates were incubated for 30 min at […] and 5% CO2 in air. Following incubation, the radioactive media was removed and replaced with 500 μL fresh media, and a 10 min efflux was conducted. After efflux, the media was collected into a gamma counting tube to measure supernatant, and the cells were washed with PBS, trypsinized, resuspended in RPMI 1640+glutamax+10% FBS, then pipetted into gamma counting tubes at 500 μL volume.
Radioactivity levels bound to cells were measured in a gamma counter (Hidex Oy, Helsinki, Finland), and cell counts were recorded using Trypan blue and an automatic cell counter to normalize radioactivity levels to cell count.

| time of peak brain uptake ([1]; naive mice, n=3) | Compound | fold higher binding to hGPR84-HEK-293 cells vs control cells (GPR84) | reduction of tracer binding in hGPR84-HEK293 cells by GLPG1205 (GPR84) | whole-brain uptake after washout, end of 60 min scan ([1]; healthy mice) | whole-brain uptake at 4 minutes post injection ([1]; naive wild-type mice) | tracer binding in LPS-challenged hMDMs compared to unstimulated cells [2] | tracer signal in LPS-challenged hMDMs after co-incubation with GLPG1205 [2] |
| --- | --- | --- | --- | --- | --- | --- | --- |
|  | Cc1cc2c(cc1O[11CH3])CCn1c-2c(C)c(OC[C@@H]2COCCO2)cc1=O [[^11C]GLPG38] | 13.5 fold | 90% and > 90% | 3.53 % ID/g | 9.46 % ID/g | significantly higher binding | reduced to baseline |
| 0.25 min | O=c1nc(OC[C@@H]2COCCO2)cc2n1CCc1cc([18F])ccc1-2 [^18F-MGX-110S] | 33.4 fold and 25 fold | > 90% |  |  | significantly higher binding | reduced to baseline |
